The source of these data is article PMC3169562, “The Hedgehog Receptor Patched Is Involved in Cholesterol Transport” (PLoS ONE, 2011).

Experiment [1] concerns the target T1, human Patched (hPtc) (Homo sapiens, UniProt Q13635).
T1 sequence (Q13635 1-1447): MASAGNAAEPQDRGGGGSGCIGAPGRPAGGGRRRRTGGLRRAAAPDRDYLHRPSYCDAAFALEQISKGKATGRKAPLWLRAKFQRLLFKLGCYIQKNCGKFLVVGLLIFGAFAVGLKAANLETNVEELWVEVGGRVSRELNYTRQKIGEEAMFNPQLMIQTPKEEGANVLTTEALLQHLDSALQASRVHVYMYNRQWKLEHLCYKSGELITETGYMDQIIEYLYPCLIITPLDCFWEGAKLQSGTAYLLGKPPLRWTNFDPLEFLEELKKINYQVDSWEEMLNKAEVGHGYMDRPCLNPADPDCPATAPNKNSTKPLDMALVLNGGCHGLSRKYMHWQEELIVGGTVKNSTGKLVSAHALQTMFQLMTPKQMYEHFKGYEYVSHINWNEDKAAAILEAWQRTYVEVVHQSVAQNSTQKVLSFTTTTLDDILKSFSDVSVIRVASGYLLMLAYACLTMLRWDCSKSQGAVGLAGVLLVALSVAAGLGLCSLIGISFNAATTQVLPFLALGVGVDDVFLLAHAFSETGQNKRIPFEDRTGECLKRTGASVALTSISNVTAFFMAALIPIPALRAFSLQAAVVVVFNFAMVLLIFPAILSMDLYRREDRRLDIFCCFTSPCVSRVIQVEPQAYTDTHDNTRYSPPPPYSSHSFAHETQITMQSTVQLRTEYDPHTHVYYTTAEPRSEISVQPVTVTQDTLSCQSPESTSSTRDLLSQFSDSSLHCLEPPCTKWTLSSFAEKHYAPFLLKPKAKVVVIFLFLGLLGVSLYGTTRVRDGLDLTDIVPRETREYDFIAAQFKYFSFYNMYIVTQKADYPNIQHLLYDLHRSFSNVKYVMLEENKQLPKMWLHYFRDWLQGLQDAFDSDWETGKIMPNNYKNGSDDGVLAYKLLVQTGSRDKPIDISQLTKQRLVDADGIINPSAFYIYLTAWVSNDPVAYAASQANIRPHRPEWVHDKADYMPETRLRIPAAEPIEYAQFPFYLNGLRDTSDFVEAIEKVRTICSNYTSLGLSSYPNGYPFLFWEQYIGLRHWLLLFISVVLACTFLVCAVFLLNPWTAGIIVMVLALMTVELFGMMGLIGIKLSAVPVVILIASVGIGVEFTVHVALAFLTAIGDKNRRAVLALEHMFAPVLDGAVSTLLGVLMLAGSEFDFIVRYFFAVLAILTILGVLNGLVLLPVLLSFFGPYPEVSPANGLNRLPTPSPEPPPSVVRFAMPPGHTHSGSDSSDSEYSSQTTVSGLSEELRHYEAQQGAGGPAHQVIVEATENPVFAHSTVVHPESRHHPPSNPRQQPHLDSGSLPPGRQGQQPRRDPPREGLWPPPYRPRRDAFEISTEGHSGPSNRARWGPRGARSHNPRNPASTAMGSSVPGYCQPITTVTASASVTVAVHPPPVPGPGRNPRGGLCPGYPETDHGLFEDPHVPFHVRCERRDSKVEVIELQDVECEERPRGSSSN
The experiment in a line: fluorescent sterol efflux from yeast over-expressing hPtc versus Myodulin or hSmo controls. Type of experiment: cell-based. Further details: gene PTCH1; hPtc-MAP over-expressed in S. cerevisiae.

Experiment [2] has as its target T1, human Patched (hPtc). Kind of experiment: SPR (Biacore): purified hPtc injected over thiocholesterol covalently coupled to a CM5 chip; Myodulin as negative control. It counts as binding. Further details: gene PTCH1. On the technique in general: SPR reads the build-up and loss of mass on a sensor chip optically.

Turning to `CC1=CC(C)=[N+]2C1=C(CC[C@@H](C)[C@H]1CC[C@H]3[C@@H]4CC=C5C[C@@H](O)CC[C@]5(C)[C@H]4CC[C@]13C)c1c(C)cc(C)n1[B-]2(F)F` [BODIPY-cholesterol], in experiment [1], the “% increase of efflux” value is ~ 88 % increase of efflux.

Take `CC(C)CCC[C@@H](C)[C@H]1CC[C@H]2[C@@H]3CC=C4C[C@@H](O)CC[C@]4(C)[C@H]3CC[C@]12C` [cholesterol]: in experiment [2], the “SPR (Biacore): purified hPtc injected over thiocholesterol covalently coupled to” value is “showed a clear binding of hPtc to cholesterol coupled on the fc in comparison with Myo”.
